In paper PMC7534330, “UHPLC-MS/MS method for pharmacokinetic and bioavailability determination of five bioactive components in raw and various processed products of Polygala tenuifolia in rat plasma” (Pharmaceutical Biology, 2020):

How the values were obtained:
[1] = Pharmacokinetics of five components in rat plasma after oral administration of RPT, LPT and HPT extracts (UHPLC-MS/MS); details: male, SD, in vivo, 1.9 g/kg; for AUC(0-t): AUC0-t; for AUC(0-inf): AUC0-∞; for MRT last: MRT0-t; for half-life: t1/2
Procedure: (§1) A Thermo Hypersil Gold C18 column (3.0 × 100 mm, i.d.; 3 μm) was used for chromatographic separation. An aqueous 10 mM ammonium acetate solution (A) and acetonitrile (B) were selected as the mobile phase components. The optimal gradient program involved the following steps: 5% B (0–1 min), changing to 85% B (1–3.5 min), 85% B (3.5–4.0 min), changing to 5% B (4.0–4.1 min) and 5% B (4.1–5.0 min). The flow rate was set to 0.4 mL/min, the autosampler was maintained at 4 °C and the injection volume was 5 μL.
(§2) UHPLC-MS/MS was conducted by an Applied Biosystems (AB) Sciex Exion LC system (Foster City, CA) connected to a 6500 + triple quad tandem mass spectrometer with an electrospray ionization source. All detection and quantifications were carried out in positive multiple reaction monitoring (MRM) mode. The optimized parameters were programmed as follows: ion source temperature, 500 °C; curtain gas pressure, 30 kPa; ion source gas 1 pressure, 55 kPa; ion source gas 2 pressure, 55 kPa; and ion spray voltage, […]. The chemical structures and ion mass spectra of targeted compounds are shown in Figure 1. The precursor ion and product ion were m/z 517.1 → 174.9 for A5, m/z 547.0 → 204.9 for A6, m/z 753.2 → 205.2 for DSS, m/z 681.3 → 443.3 for TFSA, m/z 236.8 → 103.2 for TMCA and m/z 136.9 → 92.9 for IS. All data were acquired by using AB Sciex Analyst software (version 1.6.3).
(§3) After thawing the frozen blood samples at room temperature, a 100 μL aliquot of plasma was spiked with 50 μL of the IS working solution in 2 mL EP tubes, and 750 μL of methanol was added into each of the tubes. Then, these tubes were mixed on a multi-tube Vortexer for 0.5 min before centrifugation at 11,800×g for 10 min. Finally, 200 μL of the obtained supernatant was transferred to a fresh autosampler vial, and then 5 μL of the sample was injected for analysis.
Male SD rats were randomly divided into four groups (n = 6 in each group), including the RPT group, LPT group, HPT group and control group. All oral administration samples were mixed with 0.5% CMC-Na (w/v) and then given to rats at a dose equivalent to 1.9 g/kg of RPT extract. The control group was orally treatment with equal volume of 0.5% CMC-Na solution. After a single administration, all blood samples were collected from the orbital vein into heparinized centrifuge tubes before administration (0 h) and at 0.083, 0.17, 0.25, 0.5, 0.75, 1, 1.5, 2, 3, 5, 8 and 12 h after administration and then centrifuged at 4 °C and 11,800×g for 10 min. The separated supernatant samples were preserved at −80 °C until they were measured.
(§4) The elementary pharmacokinetic parameters of plasma samples were analyzed by DAS 2.0 pharmacokinetic software. One-way analysis of variance (ANOVA) was used for statistical comparison for pharmacokinetic and interaction studies. A p-value < 0.05 indicated a significant difference. The main parameters considered were as follows: AUC0–∞ (the area under the blood concentration-time curve from zero to infinity initial plasma concentration), MRT (the mean residence time), Cmax (peak plasma concentration) and Tmax (time to reach Cmax for oral dose), t1/2 (elimination half-life) (He et al. [2015]). The absolute bioavailability (F) was evaluated as follows: F(%)=(AUCoral×Dosei.v.)/(AUCi.v.×Doseoral)×100%

[2] = Stability of the five analytes in rat plasma; assay type: in vitro ADME; details: rat; for Long-term stability, Mean: 4 weeks; for Short-term stability, Mean: 5 h; for Auto-sampler stability, Mean: 24 h
Procedure: Stock standards of A5, A6, DSS, TFSA, TMCA and IS were prepared in methanol at a concentration of 1 mg/mL. A series of working standard solutions of the targeted compounds ranging from 10 to 20,000 ng/mL and the IS solution at 600 ng/mL were prepared by diluting the stock solutions with methanol and maintained at −20 °C. Calibration standards were freshly prepared by spiking the series of standard solutions (30 μL) including the IS into blank rat plasma (270 μL) to achieve concentrations of 1, 10, 50, 100, 500, 1000, 1600 and 2000 ng/mL. Quality control (QC) samples were prepared independently at low (2 ng/mL), medium (600 ng/mL) and high (1600 ng/mL) concentrations following the same method for the five compounds.
Stability studies included short-term stability (5 h at room temperature, i.e. 25 °C), freeze-thaw stability (three consecutive freeze-thaw cycles from −20 °C to room temperature), autosampler stability (24 h storage in the autosampler at 4 °C) and long-term stability (4 weeks storage at −80 °C). The stability data of all analytes are presented in Supplementary Table S4.

[3] = Pharmacokinetics and absolute bioavailability of five compounds after oral and i.v. administration (UHPLC-MS/MS); assay type: in vivo; details: rat, in vivo; for AUCΔ0-t (dose-normalized) / AUCΔ0-∞ (dose-normalized) / CΔmax (dose-normalized) / half-life / Tmax: SD
Procedure: as §1, §2, §3
The SD rats were randomly divided into oral and i.v. groups for A5, A6, DSS, TFSA and TMCA administration (n = 6 in each group). The oral doses of A5, A6, DSS, TFSA and TMCA groups were 7.40, 11.60, 16.00, 50.00 and 3.11 mg/kg, respectively, and the corresponding i.v. doses were 0.74, 1.16, 1.60, 5.00 and 0.31 mg/kg, respectively. Blood samples were collected from the suborbital vein into heparinized tubes before and 0, 0.083, 0.17, 0.25, 0.5, 1, 2, 3, 5 and 8 h after administration. The treatment method of blood samples was the same as that mentioned above.
as §4

| Cmax [1] | Freeze-thaw stability, Mean ([2]; 2 ng/mL) | Freeze-thaw stability, Mean ([2]; 600 ng/mL) | Freeze-thaw stability, Mean ([2]; 1600 ng/mL) | Long-term stability, Mean ([2]; 2 ng/mL) | Long-term stability, Mean ([2]; 600 ng/mL) | Long-term stability, Mean ([2]; 1600 ng/mL) | Short-term stability, Mean ([2]; 2 ng/mL) | Short-term stability, Mean ([2]; 600 ng/mL) | Short-term stability, Mean ([2]; 1600 ng/mL) | Auto-sampler stability, Mean ([2]; 2 ng/mL) | Auto-sampler stability, Mean ([2]; 600 ng/mL) | Auto-sampler stability, Mean ([2]; 1600 ng/mL) | AUCΔ0-t (dose-normalized) ([3]; iv) | AUCΔ0-∞ (dose-normalized) ([3]; iv) | CΔmax (dose-normalized) ([3]; iv) | half-life ([3]; iv) | AUCΔ0-t (dose-normalized) ([3]; po) | AUCΔ0-∞ (dose-normalized) ([3]; po) | CΔmax (dose-normalized) ([3]; po) | Compound | other results |
| --- | --- | --- | --- | --- | --- | --- | --- | --- | --- | --- | --- | --- | --- | --- | --- | --- | --- | --- | --- | --- | --- |
| 169 ± 16.1 ng/mL | 92.1% | 93.5% | 101.6% | 88.6% | 97.9% | 96.6% | 94.4% | 95.2% | 98.3% | 89.4% | 94.2% | 98.7% | 368.32 ± 57.16 ng·h/mL | 368.34 ± 57.18 ng·h/mL | 1784.32 ± 136.39 ng/mL | 1.22 ± 0.07 h | 11.99 ± 2.01 ng·h/mL | 12.01 ± 2.00 ng·h/mL | 9.21 ± 2.30 ng/mL | COc1cc(/C=C/C(=O)O[C@H]2[C@H](O)[C@@H](CO)O[C@@]2(CO)O[C@H]2O[C@H](CO)[C@@H](O)[C@H](O)[C@H]2O)ccc1O [A5, Sibiricose A5] | Tmax [1]: 2.60 ± 0.71 h; AUC(0-t) [1]: 552 ± 31.1 ng·h/mL; AUC(0-inf) [1]: 553 ± 47.1 ng·h/mL; MRT last [1]: 2.64 ± 0.18 h; Tmax ([1]; Tmax): 2 h; half-life [1]: 1.23 ± 0.21 h; half-life ([3]; po): 1.27 ± 0.55 h; Tmax ([3]; po): 0.25 h; F, absolute bioavailability [3]: 3.25 % of dose |
| 74.1 ± 30.2 ng/mL | 89.3% | 97.3% | 99.7% | 95.3% | 97.3% | 93.2% | 95.3% | 98.5% | 98.1% | 92.1% | 97.7% | 98.6% | 106.32 ± 12.09 ng·h/mL | 107.00 ± 12.09 ng·h/mL | 682.88 ± 120.92 ng/mL | 0.98 ± 0.27 h | 2.51 ± 1.07 ng·h/mL | 2.86 ± 1.33 ng·h/mL | 4.39 ± 1.69 ng/mL | COc1cc(C=CC(=O)OCC2OC(OC3(CO)OC(CO)C(O)C3OC(=O)C=Cc3cc(OC)c(O)c(OC)c3)C(O)C(O)C2O)cc(OC)c1O (stereo not shown) [DSS, 3,6′-disinapoyl sucrose] | half-life ([3]; po): 1.01 ± 0.45 h; Tmax ([3]; po): 0.17 h; F, absolute bioavailability [3]: 2.36 % of dose |
| 107 ± 47.7 ng/mL | 96.5% | 96.3% | 97.4% | 89.9% | 96.3% | 96.2% | 97.6% | 97.9% | 98.5% | 96.6% | 98.2% | 96.3% | 163.79 ± 11.83 ng·h/mL | 163.80 ± 11.83 ng·h/mL | 375.56 ± 13.65 ng/mL | 0.49 ± 0.06 h | 1.92 ± 0.85 ng·h/mL | 1.92 ± 0.85 ng·h/mL | 1.88 ± 0.76 ng/mL | COc1cc(/C=C/C(=O)O[C@H]2[C@H](O)[C@@H](CO)O[C@@]2(CO)O[C@H]2O[C@H](COC(=O)c3ccc(O)cc3)[C@@H](O)[C@H](O)[C@H]2O)cc(OC)c1OC [TFSA, tenuifoliside A] | AUC(0-t) [1]: 284 ± 185 ng·h/mL; AUC(0-inf) [1]: 297 ± 194 ng·h/mL; MRT last [1]: 2.92 ± 0.58 h; half-life ([3]; po): 0.92 ± 0.21 h; Tmax ([3]; po): ~0.19 h; F, absolute bioavailability [3]: 1.17 % of dose |
| 183 ± 30.8 ng/mL | 92.4% | 91.5% | 98.3% | 93.5% | 96.3% | 96.5% | 91.5% | 94.7% | 97.4% | 87.5% | 92.1% | 97.3% | 299.15 ± 100.23 ng·h/mL | 299.16 ± 100.23 ng·h/mL | 1204.66 ± 249.66 ng/mL | 0.59 ± 0.1 h | 8.82 ± 2.40 ng·h/mL | 8.82 ± 2.40 ng·h/mL | 4.95 ± 1.64 ng/mL | COc1cc(C=CC(=O)OC2C(O)C(CO)OC2(CO)OC2OC(CO)C(O)C(O)C2O)cc(OC)c1O (stereo not shown) [A6, Sibiricose A6] | AUC(0-t) [1]: 570 ± 179 ng·h/mL; AUC(0-inf) [1]: 572 ± 179 ng·h/mL; MRT last [1]: 3.21 ± 0.78 h; Tmax ([1]; Tmax): 3.2 ± 1.64 h; half-life [1]: 1.43 ± 0.12 h; half-life ([3]; po): 0.62 ± 0.16 h; Tmax ([3]; po): 0.5 h; F, absolute bioavailability [3]: 2.95 % of dose |
